# System: MEFs expressing Mfn1 or Mfn2 in any combination
# Assay: Mitochondrial aspect ratio/morphology with adenovirally expressed minipeptides
# Assay type: cell-based, mouse
# Conditions: adenoviral expression, MOI of 100, MEFs
sequence,measurement,value
RQVSTAMAEEIRRLSVLVDDY [Adeno428-448],Effect on mitochondrial fusion / morphology,did not affect mitochondrial fusion

# From article PMC5315023 (Nature, 2016)
